We go through 6 compounds from ChEMBL document CHEMBL1134935, “Novel lopinavir analogues incorporating non-Aromatic P-1 side chains--synthesis and structure--activity relationships” (Bioorg Med Chem Lett, 2002).

Test [1] concerns MT4. In words: Antiviral activity against the cytopathic effects of HIV IIIB in MT-4 cells was assayed in the presence of 50% human serum. The format is functional, cell-based. A general note: Protection from cytopathic effect is a common read-out in antiviral testing.
Test [2] concerns MT4. Description: Cytotoxicity against MT-4 cells. The format is functional, cell-based. The conditions noted are these: Homo sapiens.
The target of test [3] is Human immunodeficiency virus type 1 protease (Human immunodeficiency virus 1) (UniProt Q72874). In words: Compound was tested for its inhibitory potency against HIV protease at 0.5 nM.

Usually EC50 stands for the concentration at which the effect is half-maximal. As usually defined, the IC50 is the concentration at which inhibition is half-maximal. Lower therefore signals greater potency in that assay. In general, inhibition refers to the percentage by which the read-out fell short of the control. Consider `Cc1cccc(C)c1OCC(=O)N[C@@H](Cc1ccccc1)[C@@H](O)C[C@@H](NC(=O)[C@H](C(C)C)N1CCCNC1=O)C(C)C`, for which, in the test on MT4 [1], the EC50 is 0.26 µM. For the same compound, in the test on MT4 [2], the half-inhibitory concentration (IC50) was 56.2 µM. This compound also registered an inhibition in test [3] of 93%.
For `Cc1cccc(C)c1OCC(=O)N[C@@H](Cc1ccccc1)[C@@H](O)C[C@H](CCC(C)C)NC(=O)[C@H](C(C)C)N1CCCNC1=O` the same measures were 0.34 µM, 18.7 µM and 97%.
For `Cc1cccc(C)c1OCC(=O)N[C@@H](Cc1ccccc1)[C@@H](O)C[C@H](Cc1ccccc1)NC(=O)[C@H](C(C)C)N1CCCNC1=O` [LOPINAVIR] the same measures were 0.1 µM, 17.8 µM and 93%.
On the same counts, the results for `Cc1cccc(C)c1OCC(=O)N[C@@H](Cc1ccccc1)[C@@H](O)C[C@H](CC(C)C)NC(=O)[C@H](C(C)C)N1CCCNC1=O` are 0.32 µM, 34.4 µM and 64%.
`CCC(CC)C[C@@H](C[C@H](O)[C@H](Cc1ccccc1)NC(=O)COc1c(C)cccc1C)NC(=O)[C@H](C(C)C)N1CCCNC1=O`: the concentration giving a half-maximal response (EC50) in the test with MT4 [1] was 2.8 µM. Also, in the test on MT4 [2], the IC50 came out at 17.8 µM. For the same compound, in test [3], the inhibition amounted to 87%.
Consider `CCCC[C@@H](C[C@H](O)[C@H](Cc1ccccc1)NC(=O)COc1c(C)cccc1C)NC(=O)[C@H](C(C)C)N1CCCNC1=O`, for which, in the test with MT4 [1], the concentration for a half-maximal effect (EC50) was 0.92 µM. Further, the IC50 with MT4 [2] is 32.9 µM. In test [3], this compound gave an inhibition of 87%.
